From US7316816B2, “Temperature and pH sensitive copolymers” (Agency for Science Technology and Research, priority 2004, dated 2008)

How the values were obtained:
[1] = In vitro drug release by dialysis; type: physicochemical; settings: pH 7.4 and 6.0
Experimental: DOX release from the nanoparticles was studied at pH 6.0, 6.6 and 7.4. A certain amount of DOX-loaded freeze-dried nanoparticles was dispersed in 200 μL of the respective buffer solution and allowed to stabilize for 30 minutes before being placed in a dialysis membrane with a molecular weight cut-off of 2000 (Spectra/Por). The dialysis bag was then immersed in 25 mL of PBS with pH 6.0, 6.6 or 7.4 at 37° C. The samples were drawn at specific time intervals and the drug concentration was analyzed using the UV-VIS spectrophotometer as stated in paragraph A(vi) of the present example.

[2] = cited from earlier work

Row | Compound | effect of pH on release of free DOX from the dialysis bag [1] | pKa [2]
1 | COc1cccc2c1C(=O)c1c(O)c3c(c(O)c1C2=O)C[C@@](O)(C(=O)CO)C[C@@H]3O[C@H]1C[C@H](N)[C@H](O)[C@H](C)O1 [DOX, doxorubicin] | no significant effect of pH | –
2 | Nc1nc2ncc(CNc3ccc(C(=O)N[C@@H](CCC(=O)O)C(=O)O)cc3)nc2c(=O)[nH]1 [Folic acid] | – | ~5.4
